Activity calls are given as the source filed them. The calls are words filed in the database; no cut-off is given here.
What was measured:
[1] = target: Dual specificity protein kinase CLK4 (Homo sapiens, UniProt Q9HAZ1); experiment: Inhibition of CLK4 (unknown origin) by ADP-Glo assay
[2] = target: Dual specificity protein kinase CLK3 (Homo sapiens, UniProt P49761); experiment: Inhibition of CLK3 (unknown origin) by ADP-Glo assay
[3] = target: T1, Dual specificity protein kinase CLK1 (Homo sapiens, UniProt P49759); experiment: Inhibition of CLK1 (unknown origin) by ADP-Glo assay
Target sequence in this assay (P49759 whole entry): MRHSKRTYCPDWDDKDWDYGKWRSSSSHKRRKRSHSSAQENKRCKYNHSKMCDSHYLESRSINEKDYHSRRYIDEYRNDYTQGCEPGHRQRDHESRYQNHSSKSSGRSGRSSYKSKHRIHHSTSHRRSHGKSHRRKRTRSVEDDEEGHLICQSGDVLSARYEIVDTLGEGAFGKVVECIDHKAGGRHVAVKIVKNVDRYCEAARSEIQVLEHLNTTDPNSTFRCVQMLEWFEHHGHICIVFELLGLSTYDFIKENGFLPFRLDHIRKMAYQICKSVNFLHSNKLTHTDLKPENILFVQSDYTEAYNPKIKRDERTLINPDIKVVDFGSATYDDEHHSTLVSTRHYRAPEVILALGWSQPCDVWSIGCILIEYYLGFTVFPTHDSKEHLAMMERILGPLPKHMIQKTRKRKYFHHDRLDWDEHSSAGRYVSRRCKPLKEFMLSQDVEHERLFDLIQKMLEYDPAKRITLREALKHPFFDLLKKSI

[4] = target: T1, Dual specificity protein kinase CLK1; experiment: Inhibition of CLK1 (unknown origin) at 100 nM by ADP-Glo assay relative to control
Target sequence in this assay (P49759 whole entry, looked up): as the sequence (P49759 whole entry) above

NCI-H1299 [5] = experiment: Inhibition of colony formation in human NCI-H1299 cells incubated for 7 days by crystal violet staining based analysis; assay type: functional, cell-based; conditions: time 7.0 day
NCI-H1299 [6] = experiment: Induction of apoptosis in human NCI-H1299 cells assessed as viable cells at 1 uM incubated for 24 hrs by annexin V-FITC/PI staining based flow cytometric analysis (reference value: 95 %); assay type: functional; conditions: read-out: Activity
NCI-H1299 [7] = experiment: Induction of apoptosis in human NCI-H1299 cells assessed as early apoptotic cells at 0.1 uM incubated for 24 hrs by annexin V-FITC/PI staining based flow cytometric analysis (reference value: 0.49 %); assay type: functional
NCI-H1299 [8] = experiment: Induction of apoptosis in human NCI-H1299 cells assessed as early apoptotic cells at 0.25 uM incubated for 24 hrs by annexin V-FITC/PI staining based flow cytometric analysis (reference value: 0.49 %); assay type: functional
NCI-H1299 [9] = experiment: Induction of apoptosis in human NCI-H1299 cells assessed as early apoptotic cells at 0.5 uM incubated for 24 hrs by annexin V-FITC/PI staining based flow cytometric analysis (reference value: 0.49 %); assay type: functional
NCI-H1299 [10] = experiment: Induction of apoptosis in human NCI-H1299 cells assessed as late apoptotic cells at 0.1 uM incubated for 24 hrs by annexin V-FITC/PI staining based flow cytometric analysis (reference value: 2.23 %); assay type: functional
NCI-H1299 [11] = experiment: Induction of apoptosis in human NCI-H1299 cells assessed as late apoptotic cells at 0.25 uM incubated for 24 hrs by annexin V-FITC/PI staining based flow cytometric analysis (reference value: 2.23 %); assay type: functional
NCI-H1299 [12] = experiment: Induction of apoptosis in human NCI-H1299 cells assessed as necrotic cells at 0.1 uM incubated for 24 hrs by annexin V-FITC/PI staining based flow cytometric analysis (reference value: 2.28 %); assay type: functional
NCI-H1299 [13] = experiment: Induction of apoptosis in human NCI-H1299 cells assessed as necrotic cells at 0.5 uM incubated for 24 hrs by annexin V-FITC/PI staining based flow cytometric analysis (reference value: 2.28 %); assay type: functional
NCI-H1299 [14] = experiment: Induction of apoptosis in human NCI-H1299 cells assessed as necrotic cells at 2.5 uM incubated for 24 hrs by annexin V-FITC/PI staining based flow cytometric analysis (reference value: 2.28 %); assay type: functional
NCI-H1299 [15] = experiment: Inhibition of Wnt pathway in human NCI-H1299 cells assessed as downregulation of beta-catenin phosphorylation at 0.1 to 1 uM incubated for 12 hrs by Western blotting analysis; assay type: cell-based; conditions: dose 0.1-1 µM
NCI-H1299 [16] = experiment: Induction of autophagy in human NCI-H1299 cells assessed as effect on LC3II protein expression at 0.1 to 1 uM incubated for 48 hrs by Western blotting analysis; assay type: functional, cell-based; conditions: dose 0.1-1 µM
[17] = system: Osimertinib-resistant NCI-H1975 cell; experiment: cells; conditions: Homo sapiens, 48 h
Description: Antiproliferative activity against human Osimertinib-resistant NCI-H1975 cell assessed as inhibition of cell growth incubated for 48 hrs by MTT assay

NCI-H1299 [18] = experiment: cells; conditions: Homo sapiens, NCI-H1299, 48 h
Description: Antiproliferative activity against human NCI-H1299 cells assessed as inhibition of cell growth incubated for 48 hrs by MTT assay

Sequence of Dual specificity protein kinase CLK4 (Q9HAZ1 whole entry): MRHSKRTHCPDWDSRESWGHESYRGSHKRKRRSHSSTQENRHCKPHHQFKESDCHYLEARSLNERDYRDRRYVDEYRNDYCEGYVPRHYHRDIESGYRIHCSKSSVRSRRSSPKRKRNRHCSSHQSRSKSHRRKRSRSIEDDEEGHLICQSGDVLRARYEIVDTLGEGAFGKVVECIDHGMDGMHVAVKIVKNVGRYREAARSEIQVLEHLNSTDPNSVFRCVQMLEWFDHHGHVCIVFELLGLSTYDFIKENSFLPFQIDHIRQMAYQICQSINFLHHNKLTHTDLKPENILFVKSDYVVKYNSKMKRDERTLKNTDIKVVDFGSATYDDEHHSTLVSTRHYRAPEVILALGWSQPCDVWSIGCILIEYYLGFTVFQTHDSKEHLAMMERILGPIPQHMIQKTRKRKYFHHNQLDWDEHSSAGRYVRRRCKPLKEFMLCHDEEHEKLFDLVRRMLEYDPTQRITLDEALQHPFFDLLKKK
Sequence of Dual specificity protein kinase CLK3 (P49761 whole entry): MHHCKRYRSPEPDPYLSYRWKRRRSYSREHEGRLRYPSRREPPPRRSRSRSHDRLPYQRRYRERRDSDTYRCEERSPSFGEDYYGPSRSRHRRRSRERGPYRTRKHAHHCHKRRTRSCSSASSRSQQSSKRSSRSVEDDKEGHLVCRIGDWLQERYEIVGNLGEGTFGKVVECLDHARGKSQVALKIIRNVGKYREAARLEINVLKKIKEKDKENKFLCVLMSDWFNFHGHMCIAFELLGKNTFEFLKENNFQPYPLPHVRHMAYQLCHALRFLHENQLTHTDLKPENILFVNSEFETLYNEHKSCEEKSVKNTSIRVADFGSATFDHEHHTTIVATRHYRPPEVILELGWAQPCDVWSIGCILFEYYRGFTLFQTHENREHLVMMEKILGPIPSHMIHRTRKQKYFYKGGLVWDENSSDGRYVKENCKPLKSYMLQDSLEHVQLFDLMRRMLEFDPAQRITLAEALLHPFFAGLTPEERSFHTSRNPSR

IC50 [1]: 7.3 nM
IC50 [2]: 28.7 nM
IC50 [3]: 4.6 nM
inhibition [4]: 98.1%
IC50 [17]: 210 nM
IC50 (NCI-H1299 [18]): 130 nM
Structure (SMILES): FC1(F)CCN(Cc2cncc(-c3ccc4[nH]nc(-c5nc(-c6ccco6)c(-c6ccco6)[nH]5)c4c3)c2)C1
inhibition (NCI-H1299 [5]): Dose-dependent-effect
viability at 1 µM (NCI-H1299 [6]): 84.3%
Activity (NCI-H1299 [7]): 1.45%
Activity (NCI-H1299 [8]): 3.57%
Activity (NCI-H1299 [9]): 8.27%
Activity (NCI-H1299 [10]): 1.26%
Activity (NCI-H1299 [11]): 2.55%
Activity (NCI-H1299 [12]): 1.1%
Activity (NCI-H1299 [13]): 0.89%
Activity (NCI-H1299 [14]): 1.6%
inhibition (NCI-H1299 [15]): Active
Activity (NCI-H1299 [16]): Active

— ChEMBL document CHEMBL6092179, “Discovery of CLKs inhibitors for the treatment of non-small cell lung cancer” (Eur J Med Chem, 2024)
